Experimental findings from article PMC3821907, “Synthesis of Novel Compounds as New Potent Tyrosinase Inhibitors” (BioMed Research International, 2013) are described below.

The target in one series is mushroom tyrosinase. Put plainly: Tyrosinase inhibition assay (diphenolase activity, L-DOPA substrate). The class given is biochemical. The settings on record: L-DOPA 0.5 mM, pH 6.8, 25°C, mean ± SEM, read-out: IC50 ± SEM, tyrosinase inhibitory activity. As to the method:
The spectrophotometric assay for tyrosinase was performed according to the method Ref 15. Briefly, all the synthesized compounds were screened for the diphenolase inhibitory activity of tyrosinase using L-DOPA as substrate. All the compounds were dissolved in DMSO. The final concentration of DMSO in the test solution was 2.0%. Phosphate buffer, pH=6.8, was used to dilute the DMSO stock solution of test compounds. Thirty units of mushroom tyrosinase (0.5 mg/mL) were first preincubated with the compounds, in 50 mM phosphate buffer (pH 6.8), for 10 min at 25°C. Then the L-DOPA (0.5 mM) was added to the reaction mixture, and the enzyme reaction was monitored by measuring the change in absorbance at 475 nm of formation of the L-DOPA chrome for 10 min. The measurement was performed in triplicate for each concentration and averaged before further calculation. […] The percent of inhibition of tyrosinase reaction was calculated as the following: Inhibition (%) = [B−S/B] × 100. Here, the B and S are the absorbances for the blank and samples.

Series [1] has as its system B16F10 mouse melanoma cells. The series is described as follows: Inhibition of melanin production. The class given is cell-based. The settings on record: 72 h; for inhibition at 20 µg/mL: B16-F10, 20 μg/mL. The procedure: (§1) Also inhibitions of the compounds 5a–5f were tested on melanin production and their cytotoxicity on B16F10 mouse melanoma cells at concentrations of 20 μg/mL.
Melanin production inhibition was ascertained by method of Wang et al.. A total of 8 × 10^4 cells were added to 60 mm plates and were incubated at 37°C in a CO2 incubator, then, 10 μL test samples in DMSO were added to plates and were incubated for 72 hours at 37°C in a CO2 incubator. After washing with PBS, cells were destroyed with 1 mL of 1 N NaOH, and 200 μL portions of raw cell extracts were moved to 96-well plates. Melanin production inhibition was determined by recording absorbance at 495 nm. The effects of test samples on melanin contents are stated as percent inhibitions of the value obtained in B16F10 mouse melanoma cells which were cultured with DMSO alone.

The nature of another series: Cytotoxicity assay (MTT). The series is classed as cell-based. The settings on record: B16F10 mouse melanoma cells, read-out: Cytotoxicity cell viability (%). As to the method:
as §1
Cytotoxicity assays were performed using a microculture MTT method described by Han et al.. A B16F10 mouse melanoma cell suspension was poured into a 96-well plate (10^3 cells/well), and cells were allowed to completely stick […] overnight. Test samples were then added to the plate and were incubated at 37°C for 72 h in a CO2 incubator. 20 μL of MTT solution (2 mg/mL) was then added per well and incubated for 4 hours. Supernatant was then removed, and formazan was solubilized by adding 150 μL DMSO to each well with mild shaking. Absorbance at 490 nm was recorded using an ELISA plate reader.

For `Cc1ccc(SC(=O)/C(=C\c2ccc(F)cc2)NC(=O)c2ccc(/N=N/c3ccc(N(C)C)cc3)cc2)c(S)c1` [Compound 5a, 4-Methyl-2-sulfanylphenyl(E)-2-[(4-{(E)-2-[4-(dimethylamino)phenyl]-1-diazenyl}benzoyl)amino]-3-(4-fluorophenyl)-2-propenethioate], the melting point – broadly, the temperature, or range, at which the solid turns liquid – is 293 °C (dec.). Moreover, the IC50 (commonly the midpoint of a concentration-inhibition curve) on mushroom tyrosinase came out at 4390 ± 760 nM. In series [1], testing at 20 µg/mL gave an inhibition of 42.1 ± 0.75%. For the same compound, in the series “Cytotoxicity assay (MTT)”, the viability (usually a per cent measure of how many cells are alive, often set against a control) at 72 h, 20 μg/mL stood at 82.2 ± 3.55%.

Consider `Cc1ccc(SC(=O)/C(=C\c2ccc(OC(F)(F)F)cc2)NC(=O)c2ccc(/N=N/c3ccc(N(C)C)cc3)cc2)c(S)c1` [Compound 5b, 4-Methyl-2-sulfanylphenyl(E)-2-[(4-{(E)-2-[4-(dimethylamino)phenyl]-1-diazenyl}benzoyl)amino]-3-[4-(trifluoromethoxy)phenyl]-2-propenethioate], for which the melting point was 286 °C (dec.). Also, at mushroom tyrosinase, the IC50 came out at 3860 ± 660 nM. For the same compound, in series [1], the inhibition (commonly the percentage by which the read-out fell short of the control) at 20 µg/mL is 41 ± 4.33%. For the same compound, the viability at 72 h, 20 μg/mL in “Cytotoxicity assay (MTT)” was 80.1 ± 1.89%.

Consider `CC(=O)Oc1c(/N=N/c2ccc(C(=O)N/C(=C/c3ccc(F)cc3)C(=O)Sc3ccc(C)cc3S)cc2)ccc2ccccc12` [Compound 5c, 2-[(E)-2-(4-{[((E)-2-(4-fluorophenyl)-1-{[(4-methyl-2-sulfanylphenyl)sulfanyl]carbonyl}-1-ethenyl)amino]carbonyl}phenyl)-1-diazenyl]-1-naphthyl Acetate], for which the melting point is 308 °C (dec.). The IC50 on mushroom tyrosinase stood at 2680 ± 550 nM. This compound displayed an inhibition at 20 µg/mL in series [1] of 35.9 ± 3.11%. Also, the viability at 72 h, 20 μg/mL in “Cytotoxicity assay (MTT)” was 83.2 ± 2.22%.

With `CC(=O)Oc1c(/N=N/c2ccc(C(=O)N/C(=C/c3ccc(OC(F)(F)F)cc3)C(=O)Sc3ccc(C)cc3S)cc2)ccc2ccccc12` [Compound 5d, 2-((E)-2-{4-[({(E)-1-{[(4-Methyl-2-sulfanylphenyl)sulfanyl]carbonyl}-2-[4-(trifluoromethoxy)phenyl]-1-ethenyl}amino)carbonyl]phenyl}-1-diazenyl)-1-naphthyl Acetate], the melting point is 318 °C (dec.). Further, the IC50 at mushroom tyrosinase is 2480 ± 880 nM. The same compound came in with an inhibition at 20 µg/mL in series [1] of 37.5 ± 4.09%. The viability at 72 h, 20 μg/mL in “Cytotoxicity assay (MTT)” amounted to 84.7 ± 5.38%.

Regarding `CC(=O)Oc1ccc2ccccc2c1/N=N/c1ccc(C(=O)N/C(=C/c2ccc(F)cc2)C(=O)Sc2ccc(C)cc2S)cc1` [Compound 5e, 1-[(E)-2-(4-{[((E)-2-(4-fluorophenyl)-1-{[(4-methyl-2-sulfanylphenyl)sulfanyl]carbonyl}-1-ethenyl)amino]carbonyl}phenyl)-1-diazenyl]-2-naphthyl Acetate], the melting point was 325 °C (dec.). For the same compound, the IC50 on mushroom tyrosinase was found to be 1980 ± 390 nM. The compound further returned an inhibition at 20 µg/mL in series [1] of 36.8 ± 1.44%. The viability at 72 h, 20 μg/mL in the series “Cytotoxicity assay (MTT)” was determined as 81.9 ± 1.08%.

Turning to `CC(=O)Oc1ccc2ccccc2c1/N=N/c1ccc(C(=O)N/C(=C/c2ccc(OC(F)(F)F)cc2)C(=O)Sc2ccc(C)cc2S)cc1` [Compound 5f, 1-((E)-2-{4-[({(E)-1-{[(4-Methyl-2-sulfanylphenyl)sulfanyl]carbonyl}-2-[4-(trifluoromethoxy)phenyl]-1-ethenyl}amino)carbonyl]phenyl}-1-diazenyl)-2-naphthyl Acetate], the melting point is 320 °C (dec.). Besides, at mushroom tyrosinase, the IC50 was found to be 1710 ± 490 nM. Further, the inhibition at 20 µg/mL in series [1] amounted to 34.7 ± 2.22%. Also, the viability at 72 h, 20 μg/mL in the series “Cytotoxicity assay (MTT)” came to 80.6 ± 2.65%.

Compound `O=c1cc(CO)occ1O` [Kojic acid, reference compound] came in with an inhibition at 200 µg/mL in series [1] (B16-F10, tested at 200 µg/mL) of 17.3 ± 1.29%. Moreover, the viability at 72 h, 200 µg/mL in “Cytotoxicity assay (MTT)” (tested at 200 µg/mL) came out at 81.7 ± 1.23%.
